In ChEMBL document CHEMBL1201862, “PubChem BioAssay data set” (2004):
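These data come from cells grown in 96-well plates and exposed to compound for 48 hours at five concentrations. GI50: concentration for 50% inhibition of growth.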 Active and inactive are the calls of the source. No stated cut-off is given here; in the data, active = GI50 up to about 1.1 µM and inactive = higher.

Legend:
Test in all cases: DTP human tumour cell line panel, 48 h
CAKI-1 = tested on: CAKI-1
COLO 205 = tested on: COLO 205
DU-145 = tested on: DU-145
EKVX = tested on: EKVX
HOP-62 = tested on: HOP-62
K562 = tested on: K562
KM12 = tested on: KM12
MOLT-4 = tested on: MOLT-4
Malme-3M = tested on: Malme-3M
NCI-H23 = tested on: NCI-H23
NCI-H522 = tested on: NCI-H522
OVCAR-8 = tested on: OVCAR-8
SK-OV-3 = tested on: SK-OV-3
SN12C = tested on: SN12C
SNB-19 = tested on: SNB-19
SW-620 = tested on: SW-620
TK-10 = tested on: TK-10
U-251 = tested on: U-251
UACC-257 = tested on: UACC-257
UO-31 = tested on: UO-31

SMILES | GI50 (CAKI-1) | GI50 (COLO 205) | GI50 (DU-145) | GI50 (EKVX) | GI50 (HOP-62) | GI50 (K562) | GI50 (KM12) | GI50 (MOLT-4) | GI50 (Malme-3M) | GI50 (NCI-H23) | GI50 (NCI-H522) | GI50 (OVCAR-8) | GI50 (SK-OV-3) | GI50 (SN12C) | GI50 (SNB-19) | GI50 (SW-620) | GI50 (TK-10) | GI50 (U-251) | GI50 (UACC-257) | GI50 (UO-31)
COc1cc2c(/C=C3/C(=O)N(C)c4ccc(O)cc43)c(Cl)[nH]c2cc1C | 0.394 µM (active) | 0.414 µM (active) | 0.655 µM (active) | 1.57 µM (inactive) | 0.327 µM (active) | 0.124 µM (active) | 0.356 µM (active) | 0.209 µM (active) | 0.179 µM (active) | 0.329 µM (active) | 0.404 µM (active) | 0.597 µM (active) | 0.326 µM (active) | 0.776 µM (active) | 0.456 µM (active) | 0.361 µM (active) | 2.81 µM (inactive) | 0.402 µM (active) | 2.25 µM (inactive) | 1.64 µM (inactive)
Cc1cccc2c(=O)c3c(O)cc(O)cc3n(C)c12 | > 100 µM (inactive) | > 100 µM (inactive) | > 100 µM (inactive) | 7.41 µM (inactive) | > 100 µM (inactive) | 63.5 µM (inactive) | > 100 µM (inactive) | > 100 µM (inactive) | > 100 µM (inactive) | > 100 µM (inactive) | > 100 µM (inactive) | > 100 µM (inactive) | > 100 µM (inactive) | > 100 µM (inactive) | > 100 µM (inactive) | > 100 µM (inactive) | > 100 µM (inactive) | > 100 µM (inactive) | > 100 µM (inactive) | 
CN(C)CCNC1=Nc2ccccc2C(=O)N2CSCC12 (stereo not given) | > 100 µM (inactive) | > 100 µM (inactive) | > 100 µM (inactive) | > 100 µM (inactive) | > 100 µM (inactive) | > 100 µM (inactive) | > 100 µM (inactive) | > 100 µM (inactive) | > 100 µM (inactive) |  | > 100 µM (inactive) | > 100 µM (inactive) | > 100 µM (inactive) | > 100 µM (inactive) | > 100 µM (inactive) | > 100 µM (inactive) | > 100 µM (inactive) | > 100 µM (inactive) | > 100 µM (inactive) | > 100 µM (inactive)
COC(=O)[C@@H]1[C@@H](c2cccc(Cl)c2)[C@H](C(=O)OC)C2(C[C@@]1(C)O)NCCS2 (stereo not given in full) | > 100 µM (inactive) | 81.1 µM (inactive) | 32.7 µM (inactive) | > 100 µM (inactive) | 92.3 µM (inactive) | 25.6 µM (inactive) | 48.8 µM (inactive) | 0.57 µM (active) | > 100 µM (inactive) | 22.3 µM (inactive) | 24.2 µM (inactive) | 86.5 µM (inactive) | > 100 µM (inactive) | 47.9 µM (inactive) | 83.9 µM (inactive) | 36.6 µM (inactive) | > 100 µM (inactive) | > 100 µM (inactive) | 87.7 µM (inactive) | > 100 µM (inactive)
CC(C)(C)OC(=O)N/N=C(/N)Cc1ccc(Cl)cc1 | > 100 µM (inactive) | > 100 µM (inactive) | > 100 µM (inactive) | > 100 µM (inactive) | > 100 µM (inactive) | 37.2 µM (inactive) | > 100 µM (inactive) | > 100 µM (inactive) | > 100 µM (inactive) |  | > 100 µM (inactive) | > 100 µM (inactive) | > 100 µM (inactive) | > 100 µM (inactive) | > 100 µM (inactive) | > 100 µM (inactive) | > 100 µM (inactive) | > 100 µM (inactive) | > 100 µM (inactive) | > 100 µM (inactive)
Cc1c2c(OCCN3CCCCC3)nn(C)c(=O)c2c(C)n1-c1ccccc1 | 32.9 µM (inactive) | 17.7 µM (inactive) | 52.7 µM (inactive) | 50.6 µM (inactive) | > 100 µM (inactive) | 27.7 µM (inactive) | 32.7 µM (inactive) | 29.5 µM (inactive) | 19.1 µM (inactive) | 28.1 µM (inactive) | 26.7 µM (inactive) | 74.8 µM (inactive) | 56.1 µM (inactive) | 56.1 µM (inactive) | 77.1 µM (inactive) | 55 µM (inactive) | 67.5 µM (inactive) | 49.2 µM (inactive) | 22.1 µM (inactive) | 12.2 µM (inactive)
COc1cc([N+](=O)[O-])cc2c1NC(=O)C2(C)SC (stereo not given) | > 100 µM (inactive) | > 100 µM (inactive) | > 100 µM (inactive) | > 100 µM (inactive) | > 100 µM (inactive) | 34.4 µM (inactive) | > 100 µM (inactive) | 31.6 µM (inactive) | > 100 µM (inactive) | > 100 µM (inactive) | > 100 µM (inactive) | > 100 µM (inactive) | 25.4 µM (inactive) | 58.3 µM (inactive) | > 100 µM (inactive) | 69 µM (inactive) | > 100 µM (inactive) | > 100 µM (inactive) | > 100 µM (inactive) | > 100 µM (inactive)
CC1(C)CN(CC(=O)O)CC(Cc2ccc(OCC(=O)O)cc2)N(CC(=O)O)CC(C)(C)SS1 (stereo not given) | > 100 µM (inactive) | > 100 µM (inactive) | > 100 µM (inactive) | > 100 µM (inactive) | > 100 µM (inactive) | > 100 µM (inactive) | > 100 µM (inactive) | > 100 µM (inactive) | > 100 µM (inactive) | > 100 µM (inactive) | > 100 µM (inactive) | > 100 µM (inactive) | > 100 µM (inactive) | > 100 µM (inactive) | > 100 µM (inactive) | > 100 µM (inactive) | > 100 µM (inactive) | > 100 µM (inactive) | > 100 µM (inactive) | > 100 µM (inactive)
O=[N+]([O-])c1ccc(C2NC(=S)NC3c4cc([N+](=O)[O-])ccc4CCCC23)cc1 (stereo not given) | > 100 µM (inactive) | > 100 µM (inactive) | 33 µM (inactive) | 77.3 µM (inactive) | 57.4 µM (inactive) | > 100 µM (inactive) | > 100 µM (inactive) | > 100 µM (inactive) | > 100 µM (inactive) | 67.3 µM (inactive) | 69.7 µM (inactive) | 52.2 µM (inactive) | > 100 µM (inactive) | > 100 µM (inactive) | 40.9 µM (inactive) | > 100 µM (inactive) | > 100 µM (inactive) | 44.9 µM (inactive) | > 100 µM (inactive) | 63.8 µM (inactive)
COc1ccc2cc(CNCCCN3CCN(CCCNCc4ccc5cc(OC)ccc5c4)CC3)ccc2c1 | 1.78 µM (inactive) | 1.4 µM (inactive) | 1.54 µM (inactive) | 1.73 µM (inactive) | 1.65 µM (inactive) | 0.198 µM (active) | 0.789 µM (active) | 0.859 µM (active) | 1.72 µM (inactive) | 1.91 µM (inactive) | 2.24 µM (inactive) | 1.73 µM (inactive) | 1.42 µM (inactive) | 1.69 µM (inactive) | 1.76 µM (inactive) | 0.327 µM (active) | 1.89 µM (inactive) | 1.75 µM (inactive) | 2.22 µM (inactive) | 1.76 µM (inactive)
CC(C)(C)OC(=O)N[C@H]1CC2(C=C(Cl)C(=O)C(Cl)=C2)OC1=O | 13.5 µM (inactive) | 3.97 µM (inactive) | 27.9 µM (inactive) | 15.2 µM (inactive) | > 58.9 µM (inactive) | 2.46 µM (inactive) | 17.7 µM (inactive) | 2.48 µM (inactive) | 11.5 µM (inactive) | 17.3 µM (inactive) | 3.07 µM (inactive) | 17.1 µM (inactive) | > 46.5 µM (inactive) | 18.5 µM (inactive) | > 100 µM (inactive) | 4.33 µM (inactive) | 17.5 µM (inactive) | 20.7 µM (inactive) | 13.8 µM (inactive) | 18.8 µM (inactive)
CN1c2ccc(O)c(O)c2-c2cc(O)cc3c2C1CCC3 (stereo not given) | 20.3 µM (inactive) | 20.7 µM (inactive) | 16 µM (inactive) | 20.7 µM (inactive) | 14.1 µM (inactive) | 14.4 µM (inactive) | 21.4 µM (inactive) | 7.4 µM (inactive) | 15.9 µM (inactive) | 22.9 µM (inactive) | 4.5 µM (inactive) | 19.1 µM (inactive) | 51.9 µM (inactive) | 17.5 µM (inactive) | 63.5 µM (inactive) | 17.5 µM (inactive) | 18 µM (inactive) | 23.4 µM (inactive) | 19.1 µM (inactive) | 13.6 µM (inactive)
O=C1c2ccccc2C(=O)c2sc(Nc3ccccc3C(F)(F)F)nc21 | 8.77 µM (inactive) | 8.89 µM (inactive) | 16.9 µM (inactive) | 18.2 µM (inactive) | 14 µM (inactive) | 3.01 µM (inactive) | 10.2 µM (inactive) | 3.45 µM (inactive) | 12.4 µM (inactive) | 15.7 µM (inactive) | 8.15 µM (inactive) |  | 16.7 µM (inactive) | 32.6 µM (inactive) | 21.5 µM (inactive) | 6.1 µM (inactive) | 19.7 µM (inactive) | 10.6 µM (inactive) | 15.6 µM (inactive) | 12.1 µM (inactive)
C=C1C(=O)O[C@@H]2O[C@@]3(C)CC[C@H]4[C@H](C)CC[C@@H]1[C@@]24O3 [DEOXYARTEMISITENE] | 15.7 µM (inactive) | 11.9 µM (inactive) | 12.9 µM (inactive) | 13.3 µM (inactive) | 49.5 µM (inactive) | 3.56 µM (inactive) | 4.19 µM (inactive) | 9.08 µM (inactive) | 14.2 µM (inactive) | 15.2 µM (inactive) | 6.58 µM (inactive) |  | 36.1 µM (inactive) | 19 µM (inactive) | 47.2 µM (inactive) | 15.5 µM (inactive) | 15.9 µM (inactive) | 43.4 µM (inactive) | 18.9 µM (inactive) | 19.3 µM (inactive)
